According to patent US11464227B2, “Enhanced microbial and biorational control of nematode pests of plants” (ADVANCED BIOLOGICAL MARKETING, INC., priority 2017, dated 2022):

System: plant
Assay: Plant growth and disease resistance induction by Trichoderma metabolite
Type: in vivo
Conditions: at very low concentrations
Excerpt: These endophytic microorganisms frequently are fully symbiotic with plants (Harman, Howell, et al., 2004). These endophytic symbionts have abilities to induce multiple beneficial effects in plants, including induced resistance to diseases and potentially other pests; resistance to abiotic stresses such as drought, salt and flooding; improved efficiency of uses of nitrogen and other plant nutrients; enhancement of seed germination and seedling vigor; and enhanced plant growth and development. There are numerous diverse genera of microbes that induce at least most of these changes in plant performance, including mycorrhizae, plant growth promoting rhizobacteria, and Basidomycetous fungi in the Sebaciles such as Piriformaspora indica. These organisms have an endophytic versus a plant pathogenic life style (Shoresh, Mastouri, et al., 2010) typical of numerous other plant-associated microorganisms. The systemic changes in plant gene expression are presumed to be induced by the production of specific triggering metabolites from these different organisms. […] (Cawoy, Mariutto, et al., 2014, Debois, Fernandez, et al., 2015), and hydrophobic proteins (Djonovic, Vargas, et al., 2007, Ruoccco, Lanzuise, et al., 2015) and volatile and nonvolatile metabolites from Trichoderma […], et al., 2008).

C=CC(O)CCCCC (centres unmarked) [1-octene-3-ol]
induction of plant disease resistance: highly effective | plant growth: strongly enhances
